From patent US20150094321A1, “COMBINATION” (GlaxoSmithKline LLC, priority 2009, published 2015) come the findings set out here.

One assay concerns BT-474. The assay can be described thus: Cell growth inhibition assay. The conditions noted are these: Homo sapiens; BT-474, breast, HER2+, PIK3CA K111N; single agent; read-out: IC50 Single Agent (mean +/- std). It is filed as cell-based. As for the experimental part:
(§1) Human breast tumor lines. BT-474, HCC1419, HCC1937, HCC1954, HCC202, KPL-1, MDA-MB-157, MDA-MB-175-VII, MDA-MB-361, MDA-MB-453, SK-BR-3, SUM225PE, UACC893, and ZR-75-1; lung tumor line, CALU-3; and melanoma line, CHL-1, were from ATCC. Human breast tumor line JIMT-1 was from European Collection of Cell Cultures (UK). Human breast tumor lines SUM149PT, SUM190PT and SUM52PE were from Asterand. These lines were cultured in RPMI 1640 medium containing 10% fetal bovine serum (FBS). A head and neck tumor line, LICR LON HN5 (HN5), a gift from the Institute of Cancer Research, Surrey, U.K, was cultured in Dulbecco's modified Eagle medium (DMEM) containing 5% FBS; KPL-4 breast tumor cell line was kindly provided by Dr Junichi Kurebayashi (Kawasaki Medical School, Okayama, Japan) and cultured in DMEM containing 5% FBS. JIMT-1 is a line derived from a patient clinically resistant to trastuzumab (Herceptin®). BT-474-J4 is a single cell clone derived from a pool of BT-474 cells that were selected to grow in lapatinib to a concentration of 3 μM.
(§2) All cells were cultured for a minimum of 72 hours prior to cell plating. Cells were assayed in a 96-well tissue culture plate (NUNC 136102) of RPMI medium containing 10% FBS for all cells at 2,000 cells per well except KPL-4 and HN5 which were plated in DMEM containing 5% FBS at 500 cells per well. Approximately 24 hours after plating, cells were exposed to ten, two-fold or three-fold serial dilutions of compound or the combination of the two agents at a constant molar to molar ratio of 1:1 Compound A to Compound B in RPMI media containing 10% FBS or DMEM containing 5% FBS. Cells were incubated in the presence of compounds for 3 days. ATP levels were determined by adding Cell Titer Glo® (Promega) according to the manufacturer's protocol. Briefly, Cell Titer Glo® was added each plate, incubated for 20 minutes then luminescent signal was read on the SpectraMax L plate reader with a 0.5 sec integration time.
(§3) Inhibition of cell growth was estimated after treatment with compound or combination of compounds for three days and comparing the signal to cells treated with vehicle (DMSO). Cell growth was calculated relative to vehicle (DMSO) treated control wells. Concentration of compound that inhibits 50% of control cell growth (IC50) was interpolated using nonlinear regression with the equation, y=(A+(B−A)/(1+(C/x)̂D))), where A is the minimum response (ymin), B is the maximum response (ymax), C is the inflection point of the curve (EC50) and D is the Hill coefficient. […]

In another assay the test system is HCC1419. The assay can be described thus: Cell growth inhibition assay. It is filed as cell-based. The conditions noted are these: Homo sapiens; HCC1419, breast, HER2+, WT; single agent; read-out: IC50 Single Agent (mean +/- std). As for the experimental part: as §1, §2, §3
In another assay the test system is HCC1937. The assay can be described thus: Cell growth inhibition assay. The conditions noted are these: Homo sapiens; HCC1937, breast, PTEN low; single agent; read-out: IC50 Single Agent (mean +/- std). The assay is classed as cell-based. As for the experimental part:
as §1, §2, §3

In a further assay the test system is HCC202. The assay can be described thus: Cell growth inhibition assay. The settings on record: Homo sapiens; HCC202, breast, HER2+, PIK3CA E545K; single agent; read-out: IC50 Single Agent (mean +/- std). The assay is classed as cell-based. As for the experimental part: as §1, §2, §3
For a further assay, the system named is KPL-1. The assay can be described thus: Cell growth inhibition assay. It is filed as cell-based. The settings on record: Homo sapiens; KPL-1, breast, PIK3CA E545K; single agent; read-out: IC50 Single Agent (mean +/- std). How it is done: as §1, §2, §3
The subject of a further assay is MDA-MB-157. The assay can be described thus: Cell growth inhibition assay. The conditions noted are these: Homo sapiens; MDA-MB-157, breast, WT; single agent; read-out: IC50 Single Agent (mean +/- std). It is filed as cell-based. How it is done:
as §1, §2, §3

Another assay deals with SK-BR-3. The assay can be described thus: Cell growth inhibition assay. The conditions noted are these: Homo sapiens; SK-BR-3, breast, HER2+, WT; single agent; read-out: IC50 Single Agent (mean +/- std). The assay is classed as cell-based. How it is done: as §1, §2, §3
A further assay has as its system Capan2 tumor xenografts. The assay can be described thus: Growth of human pancreatic tumor xenografts in SCID mice. The settings on record: for % Tumor Growth Inhibition: Capan2-D01, QD, Treatment Duration 56; for tumor growth inhibition: Capan2. The assay is classed as in vivo. How it is done: (§4) Female SCID mice were implanted subcutaneously with HPAC or Capan2 tumor cells (human pancreatic carcinoma harboring mutant KRAS gene). When the tumor volume reached ˜150 mm^3, mice were block randomized to different treatment groups (n=8 mice/group). Mice received AKT inhibitor, Compound B, at 10 or 30 mg/kg, once daily (QD). MEK inhibitor, Compound A, was administered at 0.1, 0.3 and 1.0 mg/kg, once daily (QD) alone or at 0.1 and 0.3 mg/kg once daily in combination with AKT inhibitor. Mice were weighed and tumors measured by calipers twice weekly. Treatment was continued till the tumor volume reached >1000 mm^3. Tumor volumes were calculated using the formula: tumor volume=(Length×Width^2)/2. The percentage of tumor growth inhibition was calculated on each day of tumor measurement using the formula: 100×[1−(average growth of the compound-treated tumors/average growth of vehicle-treated control tumors)]. Data is plotted as mean±sem for tumor volume for each group.

In a further assay the test system is HPAC tumor xenografts. The description is as above. It is filed as in vivo. The settings on record: for % Tumor Growth Inhibition: QD; for tumor growth inhibition: HPAC. How it is done:
as §4

Regarding `CC(=O)Nc1cccc(-n2c(=O)n(C3CC3)c(=O)c3c(Nc4ccc(I)cc4F)n(C)c(=O)c(C)c32)c1` [Compound A, N-{3-[3-cyclopropyl-5-(2-fluoro-4-iodo-phenylamino)-6,8-dimethyl-2,4,7-trioxo-3,4,6,7-tetrahydro-2H-pyrido[4,3-d]pyrimidin-1-yl]phenyl}acetamide], the IC50 in the assay with BT-474, in the assay on HCC1419, with HCC1937, in the assay on HCC202, in the assay on KPL-1 and in the assay with MDA-MB-157 was greater than 1000 nM in each case. Further, the IC50 with SK-BR-3 is greater than 1000 nM. In addition, the “% Tumor Growth Inhibition” value was found to be 74% with Capan2 tumor xenografts (Compound A 0.1 mg/kg po); 90% in the assay with Capan2 tumor xenografts (Compound A 0.3 mg/kg po); 104% in the assay with Capan2 tumor xenografts (Compound A 1 mg/kg po); 38% in the assay with HPAC tumor xenografts (HPAC-D01, Compound A 0.1 mg/kg po, Treatment Duration 75); 60% in the assay with HPAC tumor xenografts (HPAC-D01, Compound A 0.3 mg/kg po, Treatment Duration 75); 91% in the assay on HPAC tumor xenografts (HPAC-D01, Compound A 1 mg/kg po, Treatment Duration 75). Moreover, the “% Tumor Growth Inhibition” value in the assay with HPAC tumor xenografts (HPAC-D02, Compound A 0.1 mg/kg po, Treatment Duration 74) turned out to be 41%; in the assay with HPAC tumor xenografts (HPAC-D02, Compound A 0.3 mg/kg po, Treatment Duration 74), 65%; in the assay with HPAC tumor xenografts (HPAC-D02, Compound A 1 mg/kg po, Treatment Duration 74), 89%. The tumor growth inhibition in the assay with Capan2 tumor xenografts (0.1 mg/kg) was 70%; in the assay on Capan2 tumor xenografts (0.3 mg/kg), 87%; in the assay with Capan2 tumor xenografts (1.0 mg/kg) it was 104%; in the assay with HPAC tumor xenografts (0.1 mg/kg QD), roughly 40%; in the assay with HPAC tumor xenografts (0.3 mg/kg QD), roughly 60%; with HPAC tumor xenografts (1 mg/kg QD), roughly 90%.

Turning to `Cn1ncc(Cl)c1-c1cc(C(=O)N[C@H](CN)Cc2ccc(F)c(F)c2)oc1Cl` [Compound B, N-{(1S)-2-amino-1-[(3,4-difluorophenyl)methyl]ethyl}-5-chloro-4-(4-chloro-1-methyl-1H-pyrazol-5-yl)-2-furancarboxamide], the IC50 with BT-474, in the assay with HCC1419, in the assay with HCC1937, with HCC202, in the assay on KPL-1 and with MDA-MB-157 was greater than 1000 nM each time. For the same molecule, in the assay with SK-BR-3, the IC50 is greater than 1000 nM. The “% Tumor Growth Inhibition” value amounted to 22% in the assay with Capan2 tumor xenografts (Compound B 10 mg/kg po); 26% with Capan2 tumor xenografts (Compound B 30 mg/kg po); 11% with HPAC tumor xenografts (HPAC-D01, Compound B 10 mg/kg po, Treatment Duration 75); 40% in the assay on HPAC tumor xenografts (HPAC-D01, Compound B 30 mg/kg po, Treatment Duration 75); 15% in the assay on HPAC tumor xenografts (HPAC-D02, Compound B 10 mg/kg po, Treatment Duration 74); 31% in the assay on HPAC tumor xenografts (HPAC-D02, Compound B 30 mg/kg po, Treatment Duration 74). The tumor growth inhibition in the assay on Capan2 tumor xenografts (at both 10 and 30 mg/kg doses) is given as 27-30%; in the assay on HPAC tumor xenografts (10 mg/kg QD, two independent studies) it was 11-15%; in the assay with HPAC tumor xenografts (30 mg/kg QD, two independent studies) it was 31-40%.
